Source: PubChem BioAssay AID1329 (NMMLSC, 2008)
Active and inactive are the calls of the source. How the calls were made is not given here.

Each compound was assayed against Induced myeloid leukemia cell differentiation protein Mcl-1 (Homo sapiens) (UniProt Q07820) (assay: Mcl-1/Bim interaction regulators – biochemical, bead-based flow cytometry, multiplexed, human, dose response (AID 1329)). Details: Bim peptide-Mcl-1 binding, MCF.
Induced myeloid leukemia cell differentiation protein Mcl-1 (Homo sapiens), sequence (Q07820 whole entry, looked up): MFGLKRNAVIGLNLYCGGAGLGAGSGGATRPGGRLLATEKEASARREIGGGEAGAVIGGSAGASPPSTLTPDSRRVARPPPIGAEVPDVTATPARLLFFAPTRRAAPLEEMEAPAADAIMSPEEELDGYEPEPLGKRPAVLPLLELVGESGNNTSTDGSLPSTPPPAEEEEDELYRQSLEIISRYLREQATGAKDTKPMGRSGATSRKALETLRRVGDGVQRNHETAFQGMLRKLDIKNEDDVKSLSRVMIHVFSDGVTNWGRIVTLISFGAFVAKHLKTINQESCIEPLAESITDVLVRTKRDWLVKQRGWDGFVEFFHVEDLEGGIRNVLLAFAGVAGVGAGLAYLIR

Percent span, inactive:
Nc1ccc(C2=Nc3cccc4cccc(c34)N2)cc1
CNCc1ccccc1Sc1ccc(O)c(O)c1
Cc1ccc(Nc2nc(-c3c(C)nc4ncccn34)cs2)cc1
CCOc1cc(NC(=S)NC)c(OCC)cc1NC(=O)c1ccc(OC)cc1
Cc1ccc(NC(=O)c2cc(S(=O)(=O)NCCC3=CCCCC3)ccc2F)cc1F
CC(/C=C/C(=O)c1ccc(C)cc1)=C\c1ccccc1
O=C(C1=NN[C@@H]2C(=O)N(c3ccccc3C(F)(F)F)C(=O)[C@H]12)c1ccc2ccccc2n1
Cc1ccc(NC(=O)CSc2nc3ccccc3c(=O)n2CCCN2CCCCC2)cc1Cl
C=CCn1c(SCC(=O)Nc2ccc3c(c2)OCO3)nnc1-c1cc(Br)ccc1O
Cc1cc(N/C(=N/S(=O)(=O)c2cc(F)ccc2F)c2ccccc2)n(-c2ccccc2)n1
Cc1ccc(NC2=C(Cl)C(=O)c3ccccc3C2=O)cc1
CCNC(=S)Nc1cc(OCC)c(NC(=O)c2cccs2)cc1OCC
CCN(CC)c1ccc(NC(=O)c2ccccc2F)cc1S(=O)(=O)Nc1ccccc1OC
Cc1cc(C)cc(NS(=O)(=O)c2ccc3c(c2)c(=O)n(C)c(=O)n3C)c1
CNC(=S)N/N=C/C1=CCC2CC1C2(C)C (centres undefined)
Cc1ccc(Nc2nc(C)cs2)cc1
Cc1ccc(-n2nc(C)c(C(=O)O)n2)c(C)c1
O=C1c2ccccc2-c2onc3ccc(NCCCn4ccnc4)c1c23
CC(C)CN1C(=O)/C(=C/c2ccco2)NC1=S
CCCCC(C(=O)OCC)C(N)Cc1ccc(F)cc1 (centres undefined)
Cc1ccc(NN2C(=O)C=CC2=O)cc1
S=C(Nc1ccccc1)N1CCn2cccc2C1c1cccnc1 (centres undefined)
O=C(Nc1ccc(Cl)cn1)Nc1ccccc1F
C/C(=N\NC(=O)COc1ccc(C(C)(C)C)cc1)c1ccc2c(c1)OCCO2
CCn1c(C)c(/C=N/Nc2nc3ccccc3s2)c2ccccc21
COC(=O)c1cccc(-n2c(C)cc(C=O)c2C)c1
Cc1ccc(-c2cc(C(=O)Nc3ccccc3C)c3ccccc3n2)o1
O=[N+]([O-])c1c(NCCO)cc(Sc2nc3ccccc3s2)c2nonc12
Cn1c(CNc2nc(-c3ccccc3)cs2)nnc1SCC(=O)N1CCc2ccccc21
Cc1c(NC2=C(Cl)C(=O)N(c3ccccc3)C2=O)c(=O)n(-c2ccccc2)n1C
Cc1nnc(NCc2n[nH]c(=O)c3ccccc23)c2ccccc12
S=C(Nc1ccc(N2CCOCC2)cc1)Nc1ccc2nc(-c3ccco3)c(-c3ccco3)nc2c1
Cc1ccc(-c2c3c([nH]c(=S)c2C#N)CCCC3)o1
O=C(Nc1nnc(SCc2ccccn2)s1)C1CC(=O)N(c2ccccc2)C1 (centres undefined)
Cc1ccc(CC(=O)OCCNC(=O)c2cccnc2)cc1
Cc1ccc(C(=O)CCC(=O)Nc2ccc(Cl)c(S(=O)(=O)Nc3cccc(Cl)c3)c2)cc1
COc1cc(C=Nc2cccc(C)c2)c(O)c([N+](=O)[O-])c1
Cc1cc(-c2csc(N)n2)c(C)n1CCc1ccccc1
CC1N(C)c2cccc3cccc(c23)N1C
COc1ccc(/C=C/C(=O)Nc2sc(Cc3ccccc3)c(C)c2C(N)=O)cc1
Cc1nn(-c2ccc(Cl)cc2)c(Cl)c1/C=C(\C#N)C(N)=O
Nc1c(C(=O)NCc2ccco2)sc2nc3c(cc12)C(=O)CCC3
CCN(CC)C(=O)COC(=O)c1cc(-c2ccco2)nc2ccccc12
O=C1NCCN1C(=O)N(c1ccccc1)c1ccccc1
C(=C\c1ccccc1)/CSc1nnc(-c2ccccn2)n1Cc1ccco1
COc1ccc(C2C(C#N)=C(C)NC3=C2S(=O)(=O)c2ccccc23)cc1 (centres undefined)
O=C1/C(=C/c2cccs2)Sc2ccccc21
Cc1cc(C)cc(-n2c(C)nc3cc(C(=O)O)ccc32)c1
O=C(N/N=C/c1ccncc1)c1cccc(NC(=O)c2ccccc2Cl)c1
CCOc1ccc2nc(SCC(=O)N3c4ccccc4Sc4ccccc43)c(C#N)cc2c1
COc1ccc(-n2cc(-c3ccc(OC)c(OC)c3)[nH]c2=S)cc1
CCN(CC)c1ccc(-c2nn3c(-c4cccnc4)nnc3s2)cc1
O=c1c2c(-c3ccccc3)csc2nc2c3ccccc3c(NCCN3CCOCC3)nn12
O=C(C[n+]1ccc(-c2nnc3n2CCC3)cc1)c1ccc(Cl)c(Cl)c1
Cc1ccc2c(C)c(C(=O)Nc3nnc(C)s3)oc2c1
CCN(CC)c1ccc(NC(=O)c2cccc(C)c2)cc1S(=O)(=O)Nc1ccccc1OC
CN1CCS/C1=C/C=C1/SC(=S)N(Cc2ccccc2)C1=O
COc1cc(N=c2ssnc2Cl)cc(OC)c1OC
Cc1ccc(-c2cc(-c3ccccc3Cl)c(C#N)c(N)n2)o1
COCCNC(=O)CN1CCC(NC(=O)Nc2ccccc2)CC1
O=C(COc1ccccc1Br)NCc1ccccn1
c1cncc(-c2nnc3n2N=C(c2cccs2)CS3)c1
Cc1ccc(C)c(/C=C/C(=O)c2ccccc(=O)c2O)c1
Cc1ccc(C(=O)NNC(=O)c2ccc3ncccc3c2)cc1
CCOC(=O)c1nc(Nc2ccc(N3CCC(C)CC3)cc2)c2ccccc2n1
COc1ccc2nc(-c3ccco3)c(-c3ccco3)nc2c1
CN(C)c1cccc(NC(=O)C2(C)CC2(Cl)Cl)c1 (centres undefined)
COc1ccc(OC)c(NC(=O)CCCN2C(=S)NC(C)(C)CC2C)c1 (centres undefined)
COc1cc(N=c2ssnc2Cl)cc(OC)c1
COc1ccc(OC)c(Nc2ccc(C(=O)O)cc2[N+](=O)[O-])c1
O=C(CSc1nnc(-c2ccco2)n1Cc1ccccc1)c1ccccc1
N#Cc1cccc(N=c2ssnc2Cl)c1
COc1ccc(N2C(=O)/C(=C/c3cccs3)NC2=S)cc1
COc1ccc2nc(NC(=O)c3ccc(-c4cccc([N+](=O)[O-])c4)o3)sc2c1
OCCN1CCN(CCCc2c3c(cc4c2CCC4)CCC3)CC1
COc1cc(N=c2ssnc2Cl)c(OC)cc1Cl
Cc1cc(C)nc(/N=C(\N)N2CCc3ccccc32)n1
O=C(CSc1nnc(Cc2ccccc2)o1)NCc1ccco1
CC(C)CCN1CCN(Cc2cccc3cccnc23)CC1CCO (centres undefined)
O=C(COc1ccc(Br)cc1CNC1CCCCC1)NCCc1ccccc1
COc1ccccc1C1=Nc2cccc3cccc(c23)N1
CC(C)(C)C1CCC(=NNC(=O)c2cc3c(s2)CCCC3)CC1 (centres undefined)
O=C1CSc2ccc(C(=O)Nc3cccc(S(=O)(=O)Nc4ccc(Br)cc4)c3)cc2N1
CNc1ccc(Br)cc(C(=O)/C=C/c2cccc(OC)c2)c1=O
COc1ccc(/C=C2\SC(=O)NC2=S)cc1OC
CCN1/C(=C/c2ccc3cc(C)cc(C)c3[n+]2CC)Sc2cc(C)ccc21
Cc1ccc(O)c(NC2=C(Cl)C(=O)N(Cc3ccccc3)C2=O)c1
O=C1N/C(=C/c2cccn2-c2ccccc2)C(=O)N1Cc1ccc(F)cc1
COc1cccc(/C=C2/SC(=O)N(C)C2=O)c1OCc1ccc(C(=O)O)cc1
CCSc1nnc(NC(=O)c2c(-c3ccccc3Cl)noc2C)s1
COCCN=c1scc(-c2ccco2)n1/N=C/c1ccc(O)c(O)c1O
COc1ccc(OC)c(-n2c(-c3ccc(C)cc3)n[nH]c2=S)c1
OC(COc1ccc2cc(Br)ccc2c1)CN1CCOCC1 (centres undefined)
CN(C)C(=O)N1CCC(C(=O)NC2CCCCCCC2)CC1
